Measured values: patent publication US10898498B2, “Slow release oxysterols and methods of use” (Warsaw Orthopedic, Inc., priority 2015, dated 2021)
Entries after “also recorded” stand apart in the source; their conditions may differ.

Columns and labels:
[1] = system: multipotent mesenchymal cells such as M2-10B4 (M2) marrow stromal cells and C3H10T1/2 embryonic fibroblasts; settings: M2-10B4 marrow stromal cells and C3H10T1/2 embryonic fibroblasts; cited from earlier work
[2] = system: rat two-level spine model (posterolateral space, L3-L5); test: Rat two-level posterolateral spine fusion model, implants placed bilaterally; radiographs and manual palpation; format: in vivo; settings: for bone growth / bridging bone on radiographs: 4-week and 8-week timepoints; for spinal fusion by manual palpation evaluation of the spine segments: 8 weeks; for fusion observed (share of rat spines fused, manual palpation): matrix of Oxy133, collagen and ceramic wetted with sterile water, bilateral, 8-week sacrifice, 5/5 spines
Protocol: FIG. 6 illustrates uses of a formulation of malleable implants having 20 mg of Oxy133 on each side of the implant, in accordance with the malleable implants described herein. […] A dry composition of a matrix containing Oxy133, collagen and ceramic as described herein was prepared and wetted with sterile water to be implanted in rat spines as shown in FIG. 6. The wetted matrix was cut in half with a razor blade to yield two halves. The two implants were molded into cylindrical shapes prior to insertion and were positioned bilaterally in the posterolateral space of each test subject. Each implant contained 20 mg Oxy133. Radiographs were taken roughly 10 minutes after the procedure, 4 weeks after the procedure, and 8 weeks after the procedure. […] Fusion was tested at 8-week sacrifice by manual palpation. […] A dry composition of a matrix containing Oxy133, collagen and ceramic as described herein was prepared and wetted with sterile water to be implanted in rat spines as shown in FIG. 6. The wetted matrix was cut in half with a razor blade to yield two halves. The two implants were molded into cylindrical shapes prior to insertion and were positioned bilaterally in the posterolateral space of each test subject. Each implant contained 125 mg Oxy133. Radiographs were taken roughly 10 minutes after the procedure, 4 weeks after the procedure, and 8 weeks after the procedure. […] Fusion was tested at 8-week sacrifice by manual palpation.

For `CC(C)CC[C@@H](O)[C@@H](C)[C@H]1CC[C@H]2[C@@H]3CC=C4C[C@@H](O)CC[C@]4(C)[C@H]3CC[C@]12C` [22(R)-hydroxycholesterol], the osteogenic differentiation [1] is given as “induce osteogenic differentiation”.

In the case of `CC(C)CC[C@H](O)[C@@H](C)[C@H]1CC[C@H]2[C@@H]3CC=C4C[C@@H](O)CC[C@]4(C)[C@H]3CC[C@]12C` [22(S)-hydroxycholesterol], the osteogenic differentiation [1] is given as “induce osteogenic differentiation”.

With `CCCCCC[C@](C)(O)[C@H]1CC[C@H]2[C@@H]3C[C@H](O)[C@H]4C[C@@H](O)CC[C@]4(C)[C@H]3CC[C@@]21C` [Oxy133, (3S,5S,6S,8R,9S,10R,13S,14S,17S)-17-((S)-2-hydroxyoctan-2-yl)-10,13-dimethylhexadecahydro-1H-cyclopenta[a]phenanthrene-3,6-diol] the “bone growth / bridging bone on radiographs” value ([2]; each implant 20 mg Oxy133) was “Bone growth in rat test subjects can be seen; also recorded: promoted bridging bone across the transverse processes of L3-L5”, the “spinal fusion by manual palpation evaluation of the spine segments” value ([2]; each implant 20 mg Oxy133) was “yielded spinal fusion; also recorded: limited flexibility” and the “bone growth / bridging bone on radiographs” value ([2]; each implant 125 mg Oxy133) was “Bone growth in rat test subjects can be seen; also recorded: promoted bridging bone across the transverse processes of L3-L5”. For the same compound, the “spinal fusion by manual palpation evaluation of the spine segments” value ([2]; each implant 125 mg Oxy133) was “yielded spinal fusion; also recorded: limited flexibility”, the “fusion observed (share of rat spines fused, manual palpation)” value ([2]; each implant 20 mg Oxy133) was 100% and the “fusion observed (share of rat spines fused, manual palpation)” value ([2]; each implant 125 mg Oxy133) was 100%.

For `CC(C)CCC[C@](C)(O)[C@H]1CC[C@H]2[C@@H]3CC=C4C[C@@H](O)CC[C@]4(C)[C@H]3CC[C@@]21C` [20(S)-hydroxycholesterol], the osteogenic differentiation [1] is listed as “induce osteogenic differentiation”.
